ChEMBL document CHEMBL4229504, “Incorporation of histone deacetylase inhibitory activity into the core of tamoxifen - A new hybrid design paradigm” (Bioorg Med Chem, 2018)
pIC50: −log10 of the molar value. Calls of active or inactive are those of the source. The rule behind the calls is not given here.

How the values were obtained:
[1] = biological target: T1, Estrogen receptor (Homo sapiens, UniProt P03372); test: Partial agonist activity at recombinant human ERalpha expressed in HEK293 cells assessed as YFP-fused SRC1 coactivator recruitment measured after 1 hr in presence of Coelenterazine H by BRET assay; type: cell-based; conditions: hek293, 1 h
T1 sequence (P03372 whole entry): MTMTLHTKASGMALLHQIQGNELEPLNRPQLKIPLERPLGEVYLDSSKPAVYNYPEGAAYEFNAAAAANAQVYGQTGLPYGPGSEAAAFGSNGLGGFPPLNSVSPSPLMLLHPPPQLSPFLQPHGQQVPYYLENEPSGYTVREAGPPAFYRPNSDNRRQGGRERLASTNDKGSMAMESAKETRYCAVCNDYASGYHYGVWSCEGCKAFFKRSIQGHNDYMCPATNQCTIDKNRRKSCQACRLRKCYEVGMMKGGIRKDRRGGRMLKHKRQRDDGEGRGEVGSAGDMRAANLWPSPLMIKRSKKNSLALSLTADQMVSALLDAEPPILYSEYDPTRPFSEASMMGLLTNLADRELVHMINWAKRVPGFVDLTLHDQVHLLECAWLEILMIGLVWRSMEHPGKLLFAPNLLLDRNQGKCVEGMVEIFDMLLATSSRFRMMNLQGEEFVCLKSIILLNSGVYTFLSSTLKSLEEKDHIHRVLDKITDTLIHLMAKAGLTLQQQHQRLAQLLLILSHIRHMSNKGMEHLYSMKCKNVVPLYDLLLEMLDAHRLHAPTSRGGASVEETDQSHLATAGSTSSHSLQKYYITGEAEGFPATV

[2] = biological target: T1, Estrogen receptor; test: Antagonist activity at recombinant human ERalpha expressed in HEK293 cells assessed as inhibition of estradiol-induced YFP-fused SRC1 coactivator recruitment measured after 1 hr in presence of Coelenterazine H by BRET assay; type: cell-based
[3] = biological target: T2, Protein deacetylase HDAC6 (Homo sapiens, UniProt Q9UBN7); test: Inhibition of full length recombinant human N-terminal GST-tagged HDAC6 expressed in Sf9 cells using Ac-Leu-Gly-Lys(Ac)-AMC as substrate measured after 30 mins by fluorescence assay
T2 sequence (Q9UBN7 whole entry): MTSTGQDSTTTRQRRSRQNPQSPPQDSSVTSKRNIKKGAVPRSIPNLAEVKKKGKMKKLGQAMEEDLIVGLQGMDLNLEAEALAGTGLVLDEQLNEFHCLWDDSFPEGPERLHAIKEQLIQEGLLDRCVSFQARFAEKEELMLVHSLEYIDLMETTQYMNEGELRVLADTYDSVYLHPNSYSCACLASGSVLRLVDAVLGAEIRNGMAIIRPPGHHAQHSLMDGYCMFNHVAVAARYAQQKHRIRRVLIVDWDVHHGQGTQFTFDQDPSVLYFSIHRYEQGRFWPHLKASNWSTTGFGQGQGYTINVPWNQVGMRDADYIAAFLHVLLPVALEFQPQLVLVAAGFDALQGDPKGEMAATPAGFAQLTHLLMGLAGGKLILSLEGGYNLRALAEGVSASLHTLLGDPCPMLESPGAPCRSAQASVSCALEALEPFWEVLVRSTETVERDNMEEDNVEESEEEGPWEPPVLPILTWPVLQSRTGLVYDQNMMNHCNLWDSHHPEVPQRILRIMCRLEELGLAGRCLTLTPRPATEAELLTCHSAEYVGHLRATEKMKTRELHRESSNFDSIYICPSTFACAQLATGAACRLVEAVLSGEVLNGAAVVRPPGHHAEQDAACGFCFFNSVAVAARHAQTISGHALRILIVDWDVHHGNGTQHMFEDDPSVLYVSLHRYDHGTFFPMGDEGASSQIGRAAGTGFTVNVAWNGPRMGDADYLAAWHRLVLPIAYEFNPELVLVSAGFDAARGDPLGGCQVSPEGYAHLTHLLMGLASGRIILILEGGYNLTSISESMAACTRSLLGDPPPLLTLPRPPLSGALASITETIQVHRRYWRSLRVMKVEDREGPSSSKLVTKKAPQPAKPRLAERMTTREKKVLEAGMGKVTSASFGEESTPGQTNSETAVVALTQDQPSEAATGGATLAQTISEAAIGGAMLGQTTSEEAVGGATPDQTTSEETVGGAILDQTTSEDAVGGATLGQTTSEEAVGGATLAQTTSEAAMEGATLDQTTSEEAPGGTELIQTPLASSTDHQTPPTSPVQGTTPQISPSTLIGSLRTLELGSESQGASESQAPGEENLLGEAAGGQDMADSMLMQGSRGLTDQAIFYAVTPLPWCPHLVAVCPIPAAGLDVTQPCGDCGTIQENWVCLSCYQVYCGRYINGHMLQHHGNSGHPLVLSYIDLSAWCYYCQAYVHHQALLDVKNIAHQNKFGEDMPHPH

[4] = biological target: Histone deacetylase 3/Nuclear receptor corepressor 2 (HDAC3/NCoR2) (Homo sapiens, UniProt O15379); test: Inhibition of human full length C-terminal His-tagged HDAC3/N-terminal GST-tagged human NCOR2 (395 to 489 residues) expressed in baculovirus expression system using Ac-Leu-Gly-Lys(Ac)-AMC as substrate measured after 30 mins by fluorescence assay
Chain of Histone deacetylase 3/Nuclear receptor corepressor 2 (HDAC3/NCoR2) (O15379 whole entry, the tested form may be a part): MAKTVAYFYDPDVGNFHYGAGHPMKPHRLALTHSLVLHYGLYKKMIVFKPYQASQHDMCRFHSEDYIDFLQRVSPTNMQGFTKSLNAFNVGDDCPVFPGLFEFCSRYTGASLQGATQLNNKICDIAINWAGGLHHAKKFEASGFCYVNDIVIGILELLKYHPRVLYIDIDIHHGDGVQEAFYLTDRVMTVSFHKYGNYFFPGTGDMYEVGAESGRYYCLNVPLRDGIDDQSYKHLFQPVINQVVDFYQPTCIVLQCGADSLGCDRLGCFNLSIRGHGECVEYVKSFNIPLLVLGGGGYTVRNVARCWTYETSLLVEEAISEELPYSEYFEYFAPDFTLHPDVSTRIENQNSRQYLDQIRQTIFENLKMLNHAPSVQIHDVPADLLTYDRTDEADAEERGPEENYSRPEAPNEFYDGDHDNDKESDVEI
Chain of Histone deacetylase 3/Nuclear receptor corepressor 2 (HDAC3/NCoR2) (Q9Y618 whole entry, further chain, the tested form may be a part): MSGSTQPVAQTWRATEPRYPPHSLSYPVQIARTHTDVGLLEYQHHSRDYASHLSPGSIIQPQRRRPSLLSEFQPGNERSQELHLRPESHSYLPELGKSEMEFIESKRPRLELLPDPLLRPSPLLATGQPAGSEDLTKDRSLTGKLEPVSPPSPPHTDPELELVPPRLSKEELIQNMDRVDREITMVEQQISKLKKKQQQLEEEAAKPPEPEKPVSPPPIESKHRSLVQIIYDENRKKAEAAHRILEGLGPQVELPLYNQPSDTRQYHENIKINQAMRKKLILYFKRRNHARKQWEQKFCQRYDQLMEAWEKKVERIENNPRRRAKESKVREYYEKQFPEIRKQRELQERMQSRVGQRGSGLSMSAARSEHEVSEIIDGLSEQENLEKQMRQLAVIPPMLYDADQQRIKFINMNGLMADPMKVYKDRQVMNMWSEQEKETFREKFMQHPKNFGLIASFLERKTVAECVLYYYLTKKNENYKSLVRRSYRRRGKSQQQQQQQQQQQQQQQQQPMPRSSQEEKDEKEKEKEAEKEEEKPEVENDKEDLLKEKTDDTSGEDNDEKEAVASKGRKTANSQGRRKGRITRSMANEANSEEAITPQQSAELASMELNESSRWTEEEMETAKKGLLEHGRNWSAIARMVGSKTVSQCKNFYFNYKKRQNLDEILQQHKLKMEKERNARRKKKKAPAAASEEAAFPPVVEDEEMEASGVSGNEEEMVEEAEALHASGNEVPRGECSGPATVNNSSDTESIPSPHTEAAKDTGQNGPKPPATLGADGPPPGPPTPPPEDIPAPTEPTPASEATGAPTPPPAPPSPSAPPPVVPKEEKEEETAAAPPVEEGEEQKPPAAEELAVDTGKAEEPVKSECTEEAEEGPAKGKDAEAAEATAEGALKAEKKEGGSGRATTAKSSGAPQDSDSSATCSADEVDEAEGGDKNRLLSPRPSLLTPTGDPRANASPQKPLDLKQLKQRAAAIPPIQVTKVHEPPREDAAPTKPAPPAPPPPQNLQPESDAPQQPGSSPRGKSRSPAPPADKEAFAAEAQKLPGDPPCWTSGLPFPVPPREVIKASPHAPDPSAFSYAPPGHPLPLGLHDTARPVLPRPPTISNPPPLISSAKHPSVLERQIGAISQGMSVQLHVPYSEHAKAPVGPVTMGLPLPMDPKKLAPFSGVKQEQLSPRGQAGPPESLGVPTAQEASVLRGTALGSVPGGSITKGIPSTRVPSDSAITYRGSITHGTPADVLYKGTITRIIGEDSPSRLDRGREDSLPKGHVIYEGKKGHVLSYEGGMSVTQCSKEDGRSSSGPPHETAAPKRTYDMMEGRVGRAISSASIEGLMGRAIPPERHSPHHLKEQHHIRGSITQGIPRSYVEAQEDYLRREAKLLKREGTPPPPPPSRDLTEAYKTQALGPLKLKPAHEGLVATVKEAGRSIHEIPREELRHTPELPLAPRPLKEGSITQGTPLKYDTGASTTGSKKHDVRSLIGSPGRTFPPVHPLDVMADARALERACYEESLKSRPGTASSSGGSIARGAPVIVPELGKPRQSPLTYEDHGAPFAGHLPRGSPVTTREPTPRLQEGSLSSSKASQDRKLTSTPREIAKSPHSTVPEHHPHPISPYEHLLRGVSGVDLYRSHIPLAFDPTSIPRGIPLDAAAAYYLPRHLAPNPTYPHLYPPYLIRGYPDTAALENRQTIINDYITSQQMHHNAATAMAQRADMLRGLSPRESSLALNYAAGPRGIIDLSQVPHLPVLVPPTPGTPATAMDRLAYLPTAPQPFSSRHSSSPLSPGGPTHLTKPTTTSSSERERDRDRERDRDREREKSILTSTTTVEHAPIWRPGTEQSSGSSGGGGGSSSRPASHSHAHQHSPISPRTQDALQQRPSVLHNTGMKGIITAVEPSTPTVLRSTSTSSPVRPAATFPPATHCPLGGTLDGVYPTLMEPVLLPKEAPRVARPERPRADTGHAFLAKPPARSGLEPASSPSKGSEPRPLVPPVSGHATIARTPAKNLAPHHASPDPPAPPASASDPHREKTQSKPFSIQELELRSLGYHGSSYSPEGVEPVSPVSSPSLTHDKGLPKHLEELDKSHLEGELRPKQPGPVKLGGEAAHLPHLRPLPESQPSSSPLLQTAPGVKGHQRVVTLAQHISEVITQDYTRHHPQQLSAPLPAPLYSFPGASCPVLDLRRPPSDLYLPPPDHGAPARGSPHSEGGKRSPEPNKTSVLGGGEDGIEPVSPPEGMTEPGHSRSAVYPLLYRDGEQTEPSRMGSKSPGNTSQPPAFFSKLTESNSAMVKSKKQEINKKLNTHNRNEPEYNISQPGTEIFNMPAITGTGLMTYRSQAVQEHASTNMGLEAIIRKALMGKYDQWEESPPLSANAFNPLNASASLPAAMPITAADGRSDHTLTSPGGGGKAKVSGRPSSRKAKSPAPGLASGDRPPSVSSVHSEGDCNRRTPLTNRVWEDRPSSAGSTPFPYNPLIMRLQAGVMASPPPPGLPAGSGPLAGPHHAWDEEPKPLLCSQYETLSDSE

[5] = test system: MCF7; test: Cytotoxicity against ER positive human MCF7 cells treated every 2 days for 4 days measured post last dose by CellTiter-Glo luminescence assay; type: functional, cell-based
[6] = test system: MCF7; test: Cytotoxicity against ER positive human MCF7 cells treated every 2 days for 4 days measured after 7 days by CellTiter-Glo luminescence assay; type: functional, cell-based
[7] = test system: MDA-MB-231; test: Cytotoxicity against ER negative human MDA-MB-231 cells treated every 2 days for 4 days measured post last dose by CellTiter-Glo luminescence assay; type: functional, cell-based
[8] = biological target: T3, Histone deacetylase 6/3 (Homo sapiens) (UniProt O15379+Q9UBN7); test: Inhibition of HDAC6/HDAC3 in human MCF7 cells assessed as induction of CTGF mRNA expression at 5 uM after 24 hrs by QIAzol reagent based RT-qPCR analysis; type: cell-based
T3 sequence (O15379 whole entry, looked up, one chain of several): as the sequence (O15379 whole entry, the tested form may be a part) above

[9] = biological target: T3, Histone deacetylase 6/3 (Homo sapiens); test: Inhibition of HDAC6/HDAC3 in human MCF7 cells assessed as induction of CDKN1A mRNA expression at 5 uM after 24 hrs by QIAzol reagent based RT-qPCR analysis; type: cell-based
[10] = test system: MCF-10A; test: Cytotoxicity against ER negative human MCF10A cells treated every 2 days for 4 days measured post last dose by CellTiter-Glo luminescence assay; type: functional, cell-based
[11] = biological target: Histone deacetylase 3 (Homo sapiens) (UniProt O15379); test: Inhibition of HDAC3 in human MCF7 cells assessed as increase in acetylated histone H4 expression at 0.1 to 9 uM after 8 hrs by Western blot analysis; type: cell-based
Chain of Histone deacetylase 3 (Homo sapiens) (O15379 whole entry): as the sequence (O15379 whole entry, the tested form may be a part) above

[12] = biological target: T4, Protein deacetylase HDAC6 (Homo sapiens) (UniProt Q9UBN7); test: Inhibition of HDAC6 in human MCF7 cells assessed as increase in acetylated alpha-tubulin expression at 0.1 to 9 uM after 8 hrs by Western blot analysis; type: cell-based
T4 sequence (whole entry): T2 sequence (Q9UBN7 whole entry)

[13] = biological target: T3, Histone deacetylase 6/3 (Homo sapiens); test: Inhibition of HDAC6/HDAC3 in human MCF7 cells assessed as induction of SREBF1 mRNA expression at 5 uM after 24 hrs by QIAzol reagent based RT-qPCR analysis; type: cell-based
[14] = test system: MCF-10A; test: Cytotoxicity against ER negative human MCF10A cells treated every 2 days for 4 days measured after 7 days by CellTiter-Glo luminescence assay; type: functional, cell-based
[15] = test system: MDA-MB-231; test: Cytotoxicity against ER negative human MDA-MB-231 cells treated every 2 days for 4 days measured after 7 days by CellTiter-Glo luminescence assay; type: functional, cell-based
[16] = biological target: T5, Estrogen receptor (Homo sapiens) (UniProt P03372); test: Antagonist activity at recombinant human ERalpha expressed in HEK293 cells assessed as inhibition of estradiol-induced YFP-fused SRC1 coactivator recruitment at higher concentration measured after 1 hr in presence of Coelenterazine H by BRET assay; type: cell-based
T5 sequence (whole entry): T1 sequence (P03372 whole entry)

| Compound | Activity [1] | pIC50 [2] | pIC50 [3] | pIC50 [4] | pIC50 [5] | pIC50 [6] | pIC50 [7] | inhibition [8] | inhibition [9] | pIC50 [10] | inhibition [11] | inhibition [12] | inhibition [13] | pIC50 [14] | pIC50 [15] | inhibition [16] |
| --- | --- | --- | --- | --- | --- | --- | --- | --- | --- | --- | --- | --- | --- | --- | --- | --- |
| CC/C(=C(\c1ccc(O)cc1)c1ccc(OCCN(C)C)cc1)c1ccc(C(=O)NO)cc1 | Not Active | 5.95 | 4.14 | – | – | – | – | – | – | – | – | – | – | – | – | – |
| CC/C(=C(\c1ccc(O)cc1)c1ccc(OCCN(C)C)cc1)c1ccc(OCCCCC(=O)NO)cc1 | Not Active | 6.10 | 5.75 | 5.68 | 5.54 | 5.92 | – | – | – | – | – | – | – | – | – | – |
| CCC(=C(c1ccc(O)cc1)c1ccc(OCCN(C)C)cc1)c1ccccc1 | – | – | – | – | 5.41 | 5.48 | 5.46 | inactive | inactive | 5.40 | inactive | inactive | inactive | 5.40 | 5.60 | – |
| CC/C(=C(\c1ccc(O)cc1)c1ccc(OCCN(C)C)cc1)c1ccc(/C=C/C(=O)NO)cc1 | Not Active | – | 6.28 | 5.17 | 5.32 | 5.57 | – | – | – | – | – | – | – | – | – | Active |
| CC/C(=C(\c1ccc(O)cc1)c1ccc(OCCN(C)C)cc1)c1ccc(CCCCC(=O)NO)cc1 | Not Active | 6.09 | 6.52 | 6.13 | 5.89 | 6.10 | 5.90 | Active | Active | 5.66 | – | – | Active | 5.74 | 5.96 | – |
| CC/C(=C(\c1ccc(O)cc1)c1ccc(OCCN(C)C)cc1)c1ccc(CCC(=O)NO)cc1 | Not Active | 5.71 | 6.32 | 5.70 | 5.44 | 5.74 | – | – | – | – | – | – | – | – | – | – |
